# Tests used:
# CD46 expression [1] = experiment: CD46 expression by RNA-sequencing in unpaired pre-treatment and post-treatment tumor biopsies; type: in vivo, human
# CD46 expression [2] = experiment: CD46 expression by RNA-sequencing in paired tumor biopsies before and after therapy; settings: for CD46 expression diff (post minus pre) / Percent Change in CD46 expression / CD46 expression, Post-Treatment Biopsy: paired biopsies; for CD46 expression, Post-Treatment Biopsy: RNA-seq log2-transformed counts;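 on all read-outs here: FFPE human tumor biopsies, exome-capture RNA-seq, reads aligned to GRCh37, counts normalized for GC content, length and depth, summed per gene, log2-transformed, samples paired before versus after therapy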
# [3] = Prostate Cancer, Post minus Pre, unpaired biopsies, log2-transformed counts
# [4] = Prostate Cancer, post- vs pre-treatment unpaired biopsies
# [5] = Breast Cancer, Post minus Pre, unpaired biopsies, log2-transformed counts
# [6] = Breast Cancer, post- vs pre-treatment unpaired biopsies
# [7] = Breast Cancer, post-treatment biopsies, unpaired, RNA-seq log2-transformed normalized counts
# [8] = Colorectal Cancer, Post minus Pre, unpaired biopsies, log2-transformed counts
# [9] = Colorectal Cancer, post- vs pre-treatment unpaired biopsies
# [10] = Colorectal Cancer, post-treatment biopsies, unpaired, RNA-seq log2-transformed normalized counts
# [11] = Sarcoma, Post minus Pre, unpaired biopsies, log2-transformed counts
# [12] = Sarcoma, post- vs pre-treatment unpaired biopsies
# [13] = Sarcoma, post-treatment biopsies, unpaired, RNA-seq log2-transformed normalized counts
# [14] = Non-Small Cell Lung Cancer, post minus pre, unpaired biopsies
# [15] = Non-Small Cell Lung Cancer, post vs pre, unpaired biopsies
# [16] = Non-Small Cell Lung Cancer, post-treatment biopsies, log2-transformed RNA-seq counts
compound,measurement,setting,value
C[C@]12CC[C@H](O)CC1=CC[C@@H]1[C@@H]2CC[C@]2(C)C(c3cccnc3)=CC[C@@H]12 [abiraterone],CD46 expression diff,CD46 expression [1]; [3],−0.07
same,CD46 expression Percentage change,CD46 expression [1]; [4],−1.1%
same,CD46 expression Post,"CD46 expression [1]; Prostate Cancer, post-treatment biopsies, unpaired, RNA-seq log2-transformed normalized counts",6.10
same,CD46 expression diff (post minus pre),CD46 expression [2]; Prostate Cancer,0.29
same,Percent Change in CD46 expression,CD46 expression [2]; Prostate Cancer,5.1%
Cc1nc(NC(=O)N2CCC[C@H]2C(N)=O)sc1-c1ccnc(C(C)(C)C(F)(F)F)c1 [alpelisib],CD46 expression diff,CD46 expression [1]; [5],0.13
same,CD46 expression Percentage change,CD46 expression [1]; [6],2.0%
same,CD46 expression Post,CD46 expression [1]; [7],6.67
same,CD46 expression diff (post minus pre),CD46 expression [2]; Breast Cancer,−0.01
same,Percent Change in CD46 expression,CD46 expression [2]; Breast Cancer,−0.1%
same,"CD46 expression, Post-Treatment Biopsy",CD46 expression [2]; Breast Cancer,6.57
CC(C)(C#N)c1cc(Cn2cncn2)cc(C(C)(C)C#N)c1 [anastrozole],CD46 expression diff,CD46 expression [1]; [5],0.06
same,CD46 expression Percentage change,CD46 expression [1]; [6],0.9%
same,CD46 expression Post,CD46 expression [1]; [7],6.41
same,CD46 expression diff (post minus pre),CD46 expression [2]; Breast Cancer,0.41
same,Percent Change in CD46 expression,CD46 expression [2]; Breast Cancer,6.7%
same,"CD46 expression, Post-Treatment Biopsy",CD46 expression [2]; Breast Cancer,6.49
same,subjects whose paired biopsies showed increased CD46 expression,"CD46 expression [2]; breast cancer, 15 of 19 subjects, FIG. 3",79%
CC(O)(CS(=O)(=O)c1ccc(F)cc1)C(=O)Nc1ccc(C#N)c(C(F)(F)F)c1 (stereo not shown) [bicalutamide],CD46 expression diff,CD46 expression [1]; [3],−0.06
same,CD46 expression Percentage change,CD46 expression [1]; [4],−0.9%
same,CD46 expression diff (post minus pre),CD46 expression [2]; Prostate Cancer,−0.24
same,Percent Change in CD46 expression,CD46 expression [2]; Prostate Cancer,−3.8%
same,"CD46 expression, Post-Treatment Biopsy",CD46 expression [2]; Prostate Cancer,6.08
CO[C@H]1C(=O)[C@]2(C)[C@@H](OC)C[C@H]3OC[C@@]3(OC(C)=O)[C@H]2[C@H](OC(=O)c2ccccc2)[C@]2(O)C[C@H](OC(=O)[C@H](O)[C@@H](NC(=O)OC(C)(C)C)c3ccccc3)C(C)=C1C2(C)C [cabazitaxel],CD46 expression diff,CD46 expression [1]; [3],0.09
same,CD46 expression Percentage change,CD46 expression [1]; [4],1.6%
same,CD46 expression diff (post minus pre),CD46 expression [2]; Prostate Cancer,0.07
same,Percent Change in CD46 expression,CD46 expression [2]; Prostate Cancer,1.2%
same,"CD46 expression, Post-Treatment Biopsy",CD46 expression [2]; Prostate Cancer,5.93
CCCCCOC(=O)Nc1nc(=O)n([C@@H]2O[C@H](C)[C@@H](O)[C@H]2O)cc1F [capecitabine],CD46 expression diff,"CD46 expression [1]; Biliary Cancer, Post minus Pre, unpaired biopsies, log2-transformed counts",0.10
same,CD46 expression Percentage change,"CD46 expression [1]; Biliary Cancer, post- vs pre-treatment unpaired biopsies",1.8%
same,CD46 expression Post,"CD46 expression [1]; Biliary Cancer, post-treatment biopsies, unpaired, RNA-seq log2-transformed normalized counts",5.87
same,CD46 expression diff,CD46 expression [1]; [5],−0.07
same,CD46 expression Percentage change,CD46 expression [1]; [6],−1.2%
same,CD46 expression Post,CD46 expression [1]; [7],6.15
same,CD46 expression diff,CD46 expression [1]; [8],0.05
same,CD46 expression Percentage change,CD46 expression [1]; [9],0.8%
same,CD46 expression Post,CD46 expression [1]; [10],6.43
same,CD46 expression diff,"CD46 expression [1]; Endocrine Tumor, Post minus Pre, unpaired biopsies, log2-transformed counts",0.06
same,CD46 expression Percentage change,"CD46 expression [1]; Endocrine Tumor, post- vs pre-treatment unpaired biopsies",1.1%
same,CD46 expression Post,"CD46 expression [1]; Endocrine Tumor, post-treatment biopsies, unpaired, RNA-seq log2-transformed normalized counts",5.66
same,CD46 expression diff,"CD46 expression [1]; Esophageal Cancer, Post minus Pre, unpaired biopsies, log2-transformed counts",0.05
same,CD46 expression Percentage change,"CD46 expression [1]; Esophageal Cancer, post- vs pre-treatment unpaired biopsies",0.8%
same,CD46 expression Post,"CD46 expression [1]; Esophageal Cancer, post-treatment biopsies, unpaired, RNA-seq log2-transformed normalized counts",6.02
same,CD46 expression diff,"CD46 expression [1]; Gastric Cancer, Post minus Pre, unpaired biopsies, log2-transformed counts",−0.04
same,CD46 expression Percentage change,"CD46 expression [1]; Gastric Cancer, post- vs pre-treatment unpaired biopsies",−0.7%
same,CD46 expression Post,"CD46 expression [1]; Gastric Cancer, post-treatment biopsies, unpaired, RNA-seq log2-transformed normalized counts",5.73
same,CD46 expression diff,"CD46 expression [1]; Pancreatic Cancer, Post minus Pre, unpaired biopsies, log2-transformed counts",0.07
same,CD46 expression Percentage change,"CD46 expression [1]; Pancreatic Cancer, post- vs pre-treatment unpaired biopsies",1.2%
same,CD46 expression Post,"CD46 expression [1]; Pancreatic Cancer, post-treatment biopsies, unpaired, RNA-seq log2-transformed normalized counts",5.93
same,CD46 expression diff (post minus pre),CD46 expression [2]; Breast Cancer,−0.06
same,Percent Change in CD46 expression,CD46 expression [2]; Breast Cancer,−0.9%
same,"CD46 expression, Post-Treatment Biopsy",CD46 expression [2]; Breast Cancer,6.23
same,CD46 expression diff (post minus pre),CD46 expression [2]; Colorectal Cancer,0.06
same,Percent Change in CD46 expression,CD46 expression [2]; Colorectal Cancer,1.0%
same,CD46 expression diff (post minus pre),CD46 expression [2]; Pancreatic Cancer,0.16
same,Percent Change in CD46 expression,CD46 expression [2]; Pancreatic Cancer,2.8%
same,"CD46 expression, Post-Treatment Biopsy",CD46 expression [2]; Pancreatic Cancer,5.98
COc1cc2c(cc1O)CCN[C@]21CS[C@@H]2c3c(OC(C)=O)c(C)c4c(c3[C@H](COC1=O)N1[C@@H]2[C@H]2c3c(cc(C)c(OC)c3O)C[C@@H]([C@@H]1O)N2C)OCO4 [trabectedin],CD46 expression diff,CD46 expression [1]; [11],0.00
same,CD46 expression Percentage change,CD46 expression [1]; [12],−0.1%
same,CD46 expression Post,CD46 expression [1]; [13],5.23
CC(=O)Nc1cccc(-n2c(=O)n(C3CC3)c(=O)c3c(Nc4ccc(I)cc4F)n(C)c(=O)c(C)c32)c1 [trametinib],CD46 expression diff,"CD46 expression [1]; Melanoma, Post minus Pre, unpaired biopsies, log2-transformed counts",0.08
same,CD46 expression Percentage change,"CD46 expression [1]; Melanoma, post- vs pre-treatment unpaired biopsies",1.4%
same,CD46 expression Post,"CD46 expression [1]; Melanoma, post-treatment biopsies, unpaired, RNA-seq log2-transformed normalized counts",5.39
CC[C@]1(O)C[C@@H]2CN(CCc3c([nH]c4ccccc34)[C@@](C(=O)OC)(c3cc4c(cc3OC)N(C)[C@H]3[C@@](O)(C(=O)OC)[C@H](OC(C)=O)[C@]5(CC)C=CCN6CC[C@]43[C@@H]65)C2)C1 [vinblastine],CD46 expression diff,"CD46 expression [1]; Bladder Cancer, post minus pre, unpaired biopsies",−0.24
same,CD46 expression Percentage change,"CD46 expression [1]; Bladder Cancer, post vs pre, unpaired biopsies",−3.9%
same,CD46 expression Post,"CD46 expression [1]; Bladder Cancer, post-treatment biopsies, log2-transformed RNA-seq counts",5.89
CC[C@]1(O)C[C@H]2CN(CCc3c([nH]c4ccccc34)[C@@](C(=O)OC)(c3cc4c(cc3OC)N(C=O)[C@H]3[C@@](O)(C(=O)OC)[C@H](OC(C)=O)[C@]5(CC)C=CCN6CC[C@]43[C@@H]65)C2)C1 [vincristine],CD46 expression diff,CD46 expression [1]; [11],−0.03
same,CD46 expression Percentage change,CD46 expression [1]; [12],−0.5%
same,CD46 expression Post,CD46 expression [1]; [13],5.09
CCC1=C[C@@H]2CN(C1)Cc1c([nH]c3ccccc13)[C@@](C(=O)OC)(c1cc3c(cc1OC)N(C)[C@H]1[C@@](O)(C(=O)OC)[C@H](OC(C)=O)[C@]4(CC)C=CCN5CC[C@]31[C@@H]54)C2 [vinorelbine],CD46 expression diff,CD46 expression [1]; [5],−0.13
same,CD46 expression Percentage change,CD46 expression [1]; [6],−2.0%
same,CD46 expression Post,CD46 expression [1]; [7],6.24
same,CD46 expression diff,CD46 expression [1]; [14],−0.20
same,CD46 expression Percentage change,CD46 expression [1]; [15],−3.3%
same,CD46 expression Post,CD46 expression [1]; [16],5.98
O=P(O)(O)C(O)(Cn1ccnc1)P(=O)(O)O [zoledronic acid],CD46 expression diff,CD46 expression [1]; [5],0.41
same,CD46 expression Percentage change,CD46 expression [1]; [6],6.4%
same,CD46 expression Post,CD46 expression [1]; [7],6.78
ado-trastuzumab emtansine,CD46 expression Percentage change,CD46 expression [1]; in vivo,−0.8%
same,CD46 expression Post,CD46 expression [1]; in vivo,6.20
same,CD46 expression diff,CD46 expression [1]; in vivo,−0.05
aflibercept,CD46 expression diff,CD46 expression [1]; [8],0.21
same,CD46 expression Percentage change,CD46 expression [1]; [9],3.3%
same,CD46 expression Post,CD46 expression [1]; [10],6.58
denosumab,CD46 expression diff,CD46 expression [1]; [5],0.40
same,CD46 expression Percentage change,CD46 expression [1]; [6],6.2%
same,CD46 expression Post,CD46 expression [1]; [7],6.82
olaratumab,CD46 expression diff,CD46 expression [1]; [11],0.11
same,CD46 expression Percentage change,CD46 expression [1]; [12],2.3%
same,CD46 expression Post,CD46 expression [1]; [13],5.10
pertuzumab,CD46 expression diff,CD46 expression [1]; [5],−0.08
same,CD46 expression Percentage change,CD46 expression [1]; [6],−1.3%
same,CD46 expression Post,CD46 expression [1]; [7],6.25
ramucirumab,CD46 expression diff,CD46 expression [1]; [14],−0.17
same,CD46 expression Percentage change,CD46 expression [1]; [15],−2.8%
same,CD46 expression Post,CD46 expression [1]; [16],6.13
same,CD46 expression Pre,"CD46 expression [1]; Non-Small Cell Lung Cancer, pre-treatment biopsies, log2-transformed RNA-seq counts",6.30

# From patent US20240058464A1 (Fortis Therapeutics, Inc., priority 2021, published 2024)
